Columns and labels:
[1] = cited from earlier work
[2] = tested on: actin; settings: cited from earlier work
[3] = biological target: Fyn-SH3 (Homo sapiens, UniProt P06241); settings: phosphorylated MBP; cited from earlier work
[4] = tested on: KIR2DL2 positive NK cells vs 721.221-ICP47-C1 cells; assay: CAM cytotoxicity assay, 721.221-ICP47-C1 targets; assay type: cell-based, human; settings: NK cells from MS patients, 4 h, 26 °C, Figure 5c, MBP, pU24-6B, U24-7 p < 0.001, pU24-6A p: NS (Fisher exact test)
[5] = tested on: NK cells from MS patients co-cultured with 721.221-ICP47-C1 cells; assay: CD107a degranulation assay; assay type: cell-based, human; settings: 721.221-ICP47-C1 cells incubated with pU24-6A, Figure 5e; p < 0.01 (Fisher exact test)
[6] = biological target: T1, hNedd4L-WW3* (Homo sapiens, UniProt Q96PU5); settings: binding to hNedd4L-WW3* domain, quoted from earlier work; ref 30 (Sang et al.); cited from earlier work
T1 construct: GST (N, cleaved yes); made in house; host or cells: E. coli BL21(DE3), pGEX-4T2
T1 sequence (Q96PU5 with tags, fused parts or gaps): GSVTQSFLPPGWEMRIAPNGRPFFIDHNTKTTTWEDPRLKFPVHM

[7] = biological target: T1, hNedd4L-WW3*; settings: NMR titrations; cited from earlier work

Fyn-SH3, sequence (P06241 with tags, fused parts or gaps): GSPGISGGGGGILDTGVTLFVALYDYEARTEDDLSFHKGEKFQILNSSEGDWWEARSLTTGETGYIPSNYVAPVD

Compound | Effect of MBP phosphorylation on lipid interaction [1] | Effect of MBP phosphorylation on actin polymerization and bundling [2] | Effect of MBP phosphorylation on interaction with Fyn-SH3 [3] | Killing of 721.221-ICP47-C1 cells by KIR2DL2 positive NK cells [4] | CD107a expression, KIR2DL2 positive vs negative NK cells [5] | ΔG° [6] | ΔH° [6] [kcal/mol] | ΔS° [6] [J. mol^−1.K^−1] | hNedd4L-WW3* residue perturbed [7]
MBP: myelin basic protein, a key component of the myelin sheath (IVTPRTPPPSQGKGR) | decreases the interaction between MBP and lipids | decrease the ability of MBP to polymerize actin and to bundle actin filaments | reduced interaction with Fyn-SH3 | induced 721.221-ICP47-C1 cell killing | – | – | – | – | –
CSCC[C@H](N)C(=O)N[C@@H](CC(=O)O)C(=O)N1CCC[C@H]1C(=O)N1CCC[C@H]1C(=O)N[C@@H](CCCNC(=N)N)C(=O)N[C@H](C(=O)N1CCC[C@H]1C(=O)N1CCC[C@H]1C(=O)N1CCC[C@H]1C(=O)N[C@@H](CO)C(=O)N[C@@H](Cc1ccc(O)cc1)C(=O)N[C@@H](CO)C(=O)N[C@@H](CCC(=O)O)C(=O)N[C@H](C(=O)N[C@@H](CC(C)C)C(=O)O)C(C)C)[C@@H](C)OP(=O)(O)O [pU24-6A] | – | – | – | maintained KIR2DL2 positive NK cells unresponsive towards 721.221-ICP47-C1 cells | lower in KIR2DL2 positive NK cells in comparison with KIR2DL2 negative NK cells | (−3.49 ± 0.05)×10^1 kJ.mol^−1 | -14 ± 0.096 | -79.8 ± 0.9 | R492 was found to be perturbed

— PMC9696605 (Viruses, 2022)
